67 molecules from PubChem BioAssay AID1508612 can be followed below.

A short description of the series: passive permeability, PAMPA, ADME assay (AID 1508612). The note with it: pH 7.4, 30.0 min, 50.0 µM.

Regarding `COCc1cc(C)nc(SCC(=O)c2ccc(O)c(O)c2)c1C#N`, the Papp amounted to 118 ×10⁻⁶ cm/s.

In the case of `O=C(CSc1nc(-c2ccc(F)cc2)[nH]c1-c1ccc(F)cc1)Nc1ccc2c(c1)OCCO2`, the Papp came out at 11 ×10⁻⁶ cm/s.

`COc1ccccc1C(=O)Nc1ccccc1C(=O)Nc1cccc(S(=O)(=O)C(F)(F)F)c1` had a Papp of 7.6 ×10⁻⁶ cm/s.

The molecule `NC(=O)C1CCN(c2nc(-c3ccc4occc(=O)c4c3)cs2)CC1` returned a Papp of 106 ×10⁻⁶ cm/s.

In turn, `COc1ccc(-c2ccc3ncc4c(c3c2)n(-c2ccc(N3CCNCC3)c(C(F)(F)F)c2)c(=O)n4C)cn1` had a Papp below 1 ×10⁻⁶ cm/s.

Take `NC(=O)c1ccc(-c2nc3c([nH]2)CN(C(=O)CN2CCOCC2)CC3)cc1`: the Papp was determined as 2.6 ×10⁻⁶ cm/s.

`Clc1ccc2ncc(-c3cccc(NC4CCNC4)n3)n2c1` (configuration not stated) displayed a Papp of 332 ×10⁻⁶ cm/s. Compared with the last molecule, the Papp is about 130-fold higher.

For the molecule `O=C(NCCN1CCOCC1)C1CC(=O)N(c2n[nH]c3cc(Br)ccc23)C1` (configuration not stated), the Papp worked out at 1.8 ×10⁻⁶ cm/s.

For the molecule `Cc1cccc2c(C(=O)O)cc(-c3cccs3)nc12`, the Papp amounted to 18.8 ×10⁻⁶ cm/s.

On to `C[C@H]1CN(C(=O)c2nn(C)c3ccccc23)C[C@@H]1c1nc(-c2cccnc2)no1`, for which the Papp was 982 ×10⁻⁶ cm/s.

Molecule `COc1ccc(O)c2c(=O)c3c(OC)cc4c(c3oc12)C1C=COC1O4` (configuration not stated) came in with a Papp of 890 ×10⁻⁶ cm/s.

Molecule `COC(C)(C)CCn1nc(Nc2c(C)cccc2C)c2cnc(Nc3ccc(OCCN4CCCC4)c(F)c3)nc21` registered a Papp above 1000 ×10⁻⁶ cm/s.

`CCOc1ccc(CCNC(=O)c2cc3ccccc3o2)cc1OCC` displayed a Papp above 1000 ×10⁻⁶ cm/s.

In the case of `O=C(Nc1ccc(S(=O)(=O)Nc2nc(-c3ccccc3)cs2)cc1)c1ccc2ccccc2c1`, the Papp was below 1 ×10⁻⁶ cm/s.

Turning to `Cc1ccc(S(=O)(=O)Nc2cc(Cl)c(Cl)cc2C(=O)Nc2nc(-c3ccccc3)cs2)cc1`, the Papp was 5 ×10⁻⁶ cm/s.

The molecule `O=C1CCCC2=C1C(c1ccncc1Br)N=C(Nc1nc3ccccc3o1)N2` (configuration not stated) registered a Papp above 1000 ×10⁻⁶ cm/s.

`Cc1noc(C)c1-c1ccc(Nc2nc(-c3ccncc3)nc3ccccc23)cc1F` showed a Papp of 410 ×10⁻⁶ cm/s.

For `NCC(=O)Nc1cccc(-c2nn3c(=O)cc(N4CCNCC4)nc3s2)c1`, the Papp was below 1 ×10⁻⁶ cm/s.

`CC(=O)c1c(C)n(-c2ccccc2)c2ccc(O)cc12` came in with a Papp of 779 ×10⁻⁶ cm/s.

`CCOc1ccc(CCNC(=O)c2cc3ccccc3n2Cc2cccc(C)n2)cc1OCC` displayed a Papp above 1000 ×10⁻⁶ cm/s.

On to `CC1=C[C@@H](CNC(C)C)[C@H](C(C)C)C[C@H]1Cc1nnc(-c2ccncc2)o1`, for which the Papp stood at 649 ×10⁻⁶ cm/s.

Molecule `N[C@@H](Cc1cc(Br)c(O)c(Br)c1)C(=O)O` displayed a Papp of 3.64 ×10⁻⁶ cm/s.

As to `N#Cc1cccc(NC(=O)c2sc3nc4c(cc3c2N)N2CCC4CC2)c1`, the Papp is 917 ×10⁻⁶ cm/s.

Molecule `O=S(=O)(Nc1ccc(S(=O)(=O)Nc2nccs2)cc1)c1ccc2ccccc2c1` had a Papp of 7.37 ×10⁻⁶ cm/s.

Turning to `c1ccc2c(Nc3ccon3)nc(-c3ccncc3)nc2c1`, the Papp came to 247 ×10⁻⁶ cm/s.

With `COC(=O)CNC(=O)c1nc(-c2ccc([S+](C)(=O)[O-])cc2)c2cnccn12`, the Papp was 9.67 ×10⁻⁶ cm/s. Compared with the last molecule, the Papp is about 26-fold lower.

As for `Cc1cc(-c2nnc3n2CCCCC3)c(C)n1-c1ccc(Br)cc1`, the Papp is above 1000 ×10⁻⁶ cm/s.

`O=C(COC(=O)CCC(=O)c1cccs1)NCc1ccco1`: the Papp turned out to be 121 ×10⁻⁶ cm/s.

`Cc1cccc(-n2cnc3cc(C(=O)N4CCC(Br)CC4)ccc32)c1`: the Papp is above 1000 ×10⁻⁶ cm/s.

In turn, `CCOC(=O)c1ccc(N2C(=O)c3[nH]nc(-c4ccc(OC)cc4)c3C2c2ccc(C)cc2)cc1` (configuration not stated) gave a Papp of 17.7 ×10⁻⁶ cm/s.

As to `N#Cc1cccc(-c2csc(N3CCC(C(N)=O)CC3)n2)c1`, the Papp turned out to be 450 ×10⁻⁶ cm/s.

`CN1CC=C(c2nc(Nc3ccc(F)c(F)c3)c3ccccc3n2)CC1` had a Papp above 1000 ×10⁻⁶ cm/s.

`COc1ccc(-c2ccc3ncc(Nc4cccnc4OC)n3n2)cn1` yielded a Papp above 1000 ×10⁻⁶ cm/s.

Take `O=C(NC1CCCc2c1cnn2-c1ccc(F)cc1F)c1ccccc1` (configuration not stated): the Papp was above 1000 ×10⁻⁶ cm/s.

`Cc1ccnc(NC(=S)N2CCC(Nc3cccc(C(F)(F)F)c3)CC2)c1` returned a Papp of 835 ×10⁻⁶ cm/s.

The molecule `CC(C)n1cc(-c2ccc3c(c2)N(C)CC3)c2c(NS(=O)(=O)c3ccn(C)n3)ccnc21` registered a Papp above 1000 ×10⁻⁶ cm/s.

Take `CC(=O)NCCNC(=O)c1ccc(-c2ncc3cnc(-c4cccc(F)c4)cn23)cc1`: the Papp was 40.6 ×10⁻⁶ cm/s.

Consider `CC(=O)Nc1ccc(C(=O)Nc2ccccc2N)cc1`, for which the Papp is below 1 ×10⁻⁶ cm/s.

`NC(=O)C1CCN(c2ncc(-c3ccc(Cl)cc3)s2)CC1` yielded a Papp of 714 ×10⁻⁶ cm/s.

`Cc1nn(CCc2nc(-c3ccccc3)cs2)c2[nH]c(=O)cc(C(F)(F)F)c12` registered a Papp of 426 ×10⁻⁶ cm/s.

On to `CCN1C(=O)c2ccccc2[S@](=O)c2ccc(C(=O)NCc3ccc(F)cc3)cc21`, for which the Papp is above 1000 ×10⁻⁶ cm/s.

The molecule `Cc1ccc(-c2cc(C(=O)NCc3cnn(C)c3)c3cc(Br)ccc3n2)cc1` had a Papp of 24.2 ×10⁻⁶ cm/s.

`O=C(CCCN1CCC(n2c(=O)[nH]c3ccccc32)CC1)c1ccc(F)cc1`: the Papp was 952 ×10⁻⁶ cm/s. This Papp lies about 39-fold higher than the previous one.

Molecule `COc1ccc(NC(C)=O)cc1S(=O)(=O)Nc1ccc(Br)cc1` showed a Papp of 627 ×10⁻⁶ cm/s.

In turn, `CC[C@@]1(O)C(=O)OCc2c1cc1n(c2=O)Cc2cc3ccccc3nc2-1` came in with a Papp of 68.3 ×10⁻⁶ cm/s.

`CCOc1cc(-c2nccc3cc(OC)c(OC)cc23)cc(OCC)c1OCC` showed a Papp above 1000 ×10⁻⁶ cm/s.

As for `Cc1nnc(N2C(=O)c3oc4ccccc4c(=O)c3C2c2ccc(F)cc2)s1` (configuration not stated), the Papp stood at 314 ×10⁻⁶ cm/s.

`COc1cccc(CNC(=O)CCCn2nc(C)c3c(C)n(-c4ccc(C)cc4)nc3c2=O)c1OC`: the Papp is 619 ×10⁻⁶ cm/s.

`COc1ccc(-c2ccc3nc(-c4ccc(SC)cc4)oc3c2)c(OC)c1OC` came in with a Papp below 1 ×10⁻⁶ cm/s.

`CC1=C(C(=O)Nc2nncs2)C(c2[nH]ncc2Cl)N=C(Nc2nc3ccccc3o2)N1` (configuration not stated) had a Papp of 37 ×10⁻⁶ cm/s.

Consider `O=C(NC1CC1)c1ccc(CSCc2ccccc2Cl)o1`, for which the Papp turned out to be 758 ×10⁻⁶ cm/s.

`CCCCC1CCC(C(=O)Nc2ccc(S(=O)(=O)Nc3nccs3)cc2)CC1` (configuration not stated) yielded a Papp of 587 ×10⁻⁶ cm/s.

As to `CCCC1=Nc2cc(C(=O)NC3CCCCC3)ccc2Sc2ccc(C)cc21`, the Papp was 17.1 ×10⁻⁶ cm/s.

As for `O=C1CCc2cc(S(=O)(=O)Nc3ccc(F)c(Cl)c3)ccc2N1`, the Papp was determined as 460 ×10⁻⁶ cm/s.

Turning to `O=C(c1ccncc1)N1CCC2(CCCN(C(c3ccccc3)c3ccccc3)C2)CC1`, the Papp was above 1000 ×10⁻⁶ cm/s.

The molecule `COC(=O)c1ccccc1NC(=O)c1ccccc1OC(F)F` returned a Papp above 1000 ×10⁻⁶ cm/s.

`CCOC(=O)N1CCc2c(sc(NCc3sccc3C)c2C(=O)Nc2cc(Cl)ccc2OC)C1` returned a Papp below 1 ×10⁻⁶ cm/s.

On to `COc1cc2c(cc1-c1c(C)noc1C)ncc1[nH]c(=O)n([C@H](C)c3ccccn3)c12`, for which the Papp amounted to 858 ×10⁻⁶ cm/s.

The molecule `Cc1nn2c(c1-c1ccccc1-c1ccccc1)N(Cc1ccc(O)cc1)CCC2` gave a Papp of 1.8 ×10⁻⁶ cm/s.

Turning to `Cc1ccc(-c2nc(C)c(C(=O)Nc3ccc4c(c3)C(=O)N3CCC[C@H]3C(=O)N4)s2)cc1`, the Papp was determined as 976 ×10⁻⁶ cm/s.

`NC(=O)C1CCN(c2ncc(-c3cccc(N4CCCCC4)c3)s2)CC1` returned an apparent permeability coefficient (Papp) of 924 ×10⁻⁶ cm/s. The Papp values of the last two molecules are within 1.5-fold of each other.

Regarding `O=C(Nc1nc(-c2ccccc2)cs1)c1ccccc1-n1cnnn1`, the Papp is below 1 ×10⁻⁶ cm/s.

`Cc1ccccc1C(=O)N1CCc2cc(-c3nc(NC(=O)Cc4ccc5ccccc5c4)sc3C)ccc21` showed an apparent permeability (Papp) below 1 ×10⁻⁶ cm/s.

The molecule `COc1ccccc1CNc1ccc(N2CCCCC2)cc1` yielded a Papp above 1000 ×10⁻⁶ cm/s.

Regarding `Cc1ccc(-c2cc(C(=O)Nc3ccc(-n4cncn4)cc3)c3ccccc3n2)cc1C`, the Papp is below 1 ×10⁻⁶ cm/s.

`CC1=C(C(=O)Nc2ccc(Cl)cc2)C(c2ccccc2C)n2ncc(C(=O)Nc3ccc(C)cc3)c2N1` (configuration not stated) gave a Papp of 10.1 ×10⁻⁶ cm/s.

Consider `CCCN1CNc2c(c(=O)[nH]c(=S)n2CCc2ccc(OC)c(OC)c2)C1`, for which the Papp was determined as 138 ×10⁻⁶ cm/s. This Papp lies about 14-fold higher than the previous one.
